Results reported in PubChem BioAssay (NCI).
Several values for one entry are separate records, joined by “and”; a condition that tells them apart may be missing. Identical values can stand only once.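 Results reflect a 48-hour exposure of cells in 96-well plates to compound at five concentrations. GI50 = concentration required for 50% inhibition of growth. The concentration for full growth arrest is given as TGI.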

What was measured:
Assay in all cases: NCI-60 cell line screen, 48 h; in the data active = GI50 below about 0.43 µM; inactive = the rest
SK-OV-3 ovarian = test system: SK-OV-3 ovarian
SK-MEL-5 melanoma = test system: SK-MEL-5 melanoma
HOP-92 NSCLC = test system: HOP-92 NSCLC
HS 578T breast = test system: HS 578T breast
UO-31 renal = test system: UO-31 renal
HCT-116 colon = test system: HCT-116 colon
MOLT-4 leukemia = test system: MOLT-4 leukemia
UACC-257 melanoma = test system: UACC-257 melanoma
SF-295 CNS = test system: SF-295 CNS
IGROV1 ovarian = test system: IGROV1 ovarian
M14 melanoma = test system: M14 melanoma
MDA-MB-231 breast = test system: MDA-MB-231 breast
BT-549 breast = test system: BT-549 breast
SK-MEL-2 melanoma = test system: SK-MEL-2 melanoma
SF-539 CNS = test system: SF-539 CNS
LOX IMVI melanoma = test system: LOX IMVI melanoma
786-0 renal = test system: 786-0 renal
SR leukemia = test system: SR leukemia
NCI-H23 lung = test system: NCI-H23 lung
SK-MEL-28 melanoma = test system: SK-MEL-28 melanoma
HCC-2998 colon = test system: HCC-2998 colon
SW-620 colon = test system: SW-620 colon
RXF 393 renal = test system: RXF 393 renal
ACHN renal = test system: ACHN renal
MCF7 breast = test system: MCF7 breast
COLO 205 colon = test system: COLO 205 colon
U251 CNS = test system: U251 CNS
EKVX NSCLC = test system: EKVX NSCLC
K-562 leukemia = test system: K-562 leukemia
TK-10 renal = test system: TK-10 renal
RPMI-8226 leukemia = test system: RPMI-8226 leukemia
DU-145 prostate = test system: DU-145 prostate
OVCAR-4 ovarian = test system: OVCAR-4 ovarian
NCI-H226 lung = test system: NCI-H226 lung
NCI/ADR-RES ovarian = test system: NCI/ADR-RES ovarian
NCI-H460 lung = test system: NCI-H460 lung
T-47D breast = test system: T-47D breast
KM12 colon = test system: KM12 colon
PC-3 prostate = test system: PC-3 prostate
HCT-15 colon = test system: HCT-15 colon
A498 renal = test system: A498 renal
SNB-19 CNS = test system: SNB-19 CNS
OVCAR-8 ovarian = test system: OVCAR-8 ovarian
HOP-62 NSCLC = test system: HOP-62 NSCLC
CAKI-1 renal = test system: CAKI-1 renal
HL-60(TB) leukemia = test system: HL-60(TB) leukemia
MDA-MB-435 = test system: MDA-MB-435
SF-268 CNS = test system: SF-268 CNS
UACC-62 melanoma = test system: UACC-62 melanoma
SNB-75 CNS = test system: SNB-75 CNS
HT29 colon = test system: HT29 colon
CCRF-CEM leukemia = test system: CCRF-CEM leukemia
OVCAR-3 ovarian = test system: OVCAR-3 ovarian
A549 NSCLC = test system: A549 NSCLC
OVCAR-5 ovarian = test system: OVCAR-5 ovarian
SN12C renal = test system: SN12C renal
NCI-H522 lung = test system: NCI-H522 lung
MALME-3M melanoma = test system: MALME-3M melanoma

O=C(Nc1ccccc1)c1cc2c(cc1Cl)SC(NNCCO)=NS2(=O)=O
> 100000 nM: TGI (SK-OV-3 ovarian) | TGI (SK-MEL-5 melanoma) | TGI (HOP-92 NSCLC) | TGI (HS 578T breast) | TGI (UO-31 renal) | TGI (HCT-116 colon) | TGI (MOLT-4 leukemia) | TGI (UACC-257 melanoma) | TGI (SF-295 CNS) | TGI (IGROV1 ovarian) | TGI (M14 melanoma) | TGI (MDA-MB-231 breast) | TGI (BT-549 breast) | TGI (SK-MEL-2 melanoma) | TGI (SF-539 CNS) | TGI (LOX IMVI melanoma) | TGI (786-0 renal) | TGI (SR leukemia) | TGI (NCI-H23 lung) | TGI (SK-MEL-28 melanoma) | TGI (HCC-2998 colon) | TGI (SW-620 colon) | TGI (RXF 393 renal) | TGI (ACHN renal) | TGI (MCF7 breast) | TGI (COLO 205 colon) | TGI (U251 CNS) | TGI (EKVX NSCLC) | TGI (K-562 leukemia) | TGI (TK-10 renal) | TGI (RPMI-8226 leukemia) | TGI (DU-145 prostate) | TGI (OVCAR-4 ovarian) | TGI (NCI-H226 lung) | TGI (NCI/ADR-RES ovarian) | TGI (NCI-H460 lung) | TGI (T-47D breast) | TGI (KM12 colon) | TGI (PC-3 prostate) | TGI (HCT-15 colon) | TGI (A498 renal) | TGI (SNB-19 CNS) | TGI (OVCAR-8 ovarian) | TGI (HOP-62 NSCLC) | TGI (CAKI-1 renal) | TGI (HL-60(TB) leukemia) | TGI (MDA-MB-435) | TGI (SF-268 CNS) | TGI (UACC-62 melanoma) | TGI (SNB-75 CNS) | TGI (HT29 colon) | TGI (CCRF-CEM leukemia)

O=C(NC1CCNCC1)c1[nH]ncc1NC(=O)c1c(Cl)cccc1Cl
1940 nM and 2170 nM: TGI (NCI-H522 lung)
999 nM and > 2620 nM: TGI (RPMI-8226 leukemia)
3180 nM and 1890 nM: TGI (UACC-62 melanoma)
681 nM and 362 nM: GI50 (IGROV1 ovarian)
active: GI50 (HOP-92 NSCLC) 323 nM and 222 nM | GI50 (HS 578T breast) 307 nM and 329 nM | GI50 (HCT-116 colon) 315 nM and 285 nM | GI50 (OVCAR-3 ovarian) 325 nM and 386 nM | GI50 (MOLT-4 leukemia) 357 nM and 329 nM | GI50 (MDA-MB-231 breast) 312 nM and 276 nM | GI50 (SK-MEL-2 melanoma) 216 nM and 303 nM | GI50 (SF-539 CNS) 271 nM and 257 nM | GI50 (LOX IMVI melanoma) 281 nM and 261 nM | GI50 (HCC-2998 colon) 396 nM and 328 nM | GI50 (SW-620 colon) 365 nM and 425 nM | GI50 (RXF 393 renal) 236 nM and 202 nM | GI50 (MCF7 breast) 198 nM and 180 nM | GI50 (COLO 205 colon) 218 nM and 182 nM | GI50 (U251 CNS) 328 nM and 329 nM | GI50 (RPMI-8226 leukemia) 329 nM and 313 nM | GI50 (OVCAR-4 ovarian) 402 nM and 383 nM | GI50 (NCI-H226 lung) 346 nM and 325 nM | GI50 (NCI-H460 lung) 338 nM and 381 nM | GI50 (OVCAR-5 ovarian) 348 nM and 282 nM | GI50 (KM12 colon) 297 nM and 305 nM | GI50 (PC-3 prostate) 332 nM and 323 nM | GI50 (SNB-19 CNS) 361 nM and 336 nM | GI50 (NCI-H522 lung) 387 nM and 280 nM | GI50 (MALME-3M melanoma) 325 nM and 257 nM | GI50 (HL-60(TB) leukemia) 305 nM and 285 nM | GI50 (MDA-MB-435) 370 nM and 335 nM | GI50 (SF-268 CNS) 343 nM and 352 nM | GI50 (SNB-75 CNS) 249 nM and 218 nM | GI50 (HT29 colon) 398 nM and 406 nM | GI50 (CCRF-CEM leukemia) 331 nM and 335 nM
1770 nM and 1780 nM: TGI (A498 renal)
7890 nM: TGI (BT-549 breast)
700 nM and 666 nM: TGI (SF-539 CNS)
> 23600 nM: TGI (DU-145 prostate)
671 nM: TGI (HOP-92 NSCLC)
> 10000 nM: TGI (SW-620 colon) | TGI (EKVX NSCLC)
6930 nM and > 10000 nM: TGI (TK-10 renal)
> 100000 nM: TGI (SK-OV-3 ovarian) | TGI (HCT-116 colon) | TGI (A549 NSCLC) | TGI (LOX IMVI melanoma) | TGI (786-0 renal) | TGI (ACHN renal) | TGI (MCF7 breast) | TGI (K-562 leukemia) | TGI (NCI/ADR-RES ovarian) | TGI (OVCAR-5 ovarian) | TGI (T-47D breast) | TGI (HCT-15 colon) | TGI (OVCAR-8 ovarian) | TGI (HOP-62 NSCLC) | TGI (CAKI-1 renal) | TGI (CCRF-CEM leukemia)
6290 nM and > 10000 nM: TGI (HT29 colon)
inactive: GI50 (SK-OV-3 ovarian) 784 nM and 1420 nM | GI50 (SK-MEL-5 melanoma) 2440 nM and 961 nM | GI50 (UO-31 renal) 16700 nM and > 7200 nM | GI50 (UACC-257 melanoma) 1420 nM and 1920 nM | GI50 (SF-295 CNS) 1130 nM and 1010 nM | GI50 (M14 melanoma) 1250 nM and 792 nM | GI50 (BT-549 breast) 588 nM and 471 nM | GI50 (A549 NSCLC) 637 nM and 860 nM | GI50 (786-0 renal) 1000 nM and 543 nM | GI50 (SK-MEL-28 melanoma) 430 nM and 568 nM | GI50 (ACHN renal) 2950 nM and 3030 nM | GI50 (EKVX NSCLC) 998 nM | GI50 (TK-10 renal) 1490 nM and 1440 nM | GI50 (NCI/ADR-RES ovarian) > 100000 nM | GI50 (T-47D breast) 1180 nM and 1010 nM | GI50 (HCT-15 colon) 9830 nM and 9930 nM | GI50 (A498 renal) 552 nM and 698 nM | GI50 (OVCAR-8 ovarian) 659 nM and 660 nM | GI50 (CAKI-1 renal) 14900 nM and 4090 nM | GI50 (UACC-62 melanoma) 1330 nM and 479 nM
9870 nM and 3230 nM: TGI (NCI-H23 lung)
451 nM and 414 nM: GI50 (HOP-62 NSCLC)
> 27900 nM: TGI (OVCAR-3 ovarian)
558 nM and 726 nM: TGI (COLO 205 colon)
2320 nM and 3960 nM: TGI (SK-MEL-28 melanoma)
1090 nM and 1640 nM: TGI (HL-60(TB) leukemia)
> 45600 nM: TGI (NCI-H460 lung)
476 nM and 403 nM: GI50 (K-562 leukemia)
1680 nM and 1030 nM: TGI (MALME-3M melanoma)
1240 nM and 387 nM: GI50 (SN12C renal)
> 60000 nM: TGI (SNB-19 CNS)
> 59700 nM: TGI (U251 CNS)
1660 nM and > 10000 nM: TGI (KM12 colon)
> 51800 nM: TGI (SF-295 CNS)
4010 nM and 2320 nM: TGI (NCI-H226 lung)
7670 nM and 5530 nM: TGI (SK-MEL-5 melanoma)
5010 nM and > 10000 nM: TGI (PC-3 prostate)
3820 nM and > 7390 nM: TGI (SF-268 CNS)
519 nM and 1140 nM: TGI (SK-MEL-2 melanoma)
> 50300 nM: TGI (SN12C renal)
635 nM and 464 nM: TGI (RXF 393 renal)
14000 nM and > 10000 nM: TGI (OVCAR-4 ovarian)
2070 nM and > 3950 nM: TGI (MDA-MB-231 breast)
7060 nM and 6170 nM: TGI (M14 melanoma)
12000 nM and > 6080 nM: TGI (HCC-2998 colon)
417 nM and 472 nM: GI50 (DU-145 prostate)
1490 nM and > 10000 nM: TGI (MOLT-4 leukemia)
3830 nM and > 2710 nM: TGI (HS 578T breast)
> 76600 nM: TGI (UO-31 renal)
1030 nM and 393 nM: GI50 (NCI-H23 lung)
1720 nM and 1580 nM: TGI (MDA-MB-435)
766 nM and 674 nM: TGI (SNB-75 CNS)
> 55200 nM: TGI (IGROV1 ovarian)
4560 nM and > 7470 nM: TGI (UACC-257 melanoma)
